Measured values taken from patent publication US8748448B2, “Combination analgesic employing opioid agonist and neutral antagonist” (AIKO Biotechnology, priority 2007, dated 2014).
“And” between values parts separate entries of the source, which are not always exact repeats. Equal entries are not always repeated.

Test system: opioid withdrawal in methadone-dependent subjects
Experiment: Double-blind ascending dose study in methadone maintenance subjects: withdrawal scales, VAS, vital signs, pupillometry, tolerability
Settings: for tolerability: b346: at all but the highest dose (1.0 mg)

6β-naltrexol
withdrawal symptoms (0.5 mg i.v., methadone-dependent subjects): minimal peripheral withdrawal and no detectable CNS withdrawal
subjects tolerating the dose rather well (1 mg i.v.): 3 of 4
overall withdrawal (VAS, SOWS, OOWS, vital signs) (0.05-1.0 mg): minimal
tolerability (0.05-1.0 mg): well tolerated
tolerability (0.05-1.0 mg, listed as 6β-Naltrexol): generally well tolerated
Diastolic BP, peak value (dose 0.05 mg): 83.0 ± 5.9 mmHg
Heart Rate, peak value (dose 0.05 mg): 61.8 ± 6.2 bpm
SOWS (total), peak value (dose 0.05 mg): 0.8 ± 1.0
Systolic blood pressure (BP), peak value (dose 0.05 mg): 121.3 ± 7.0 mmHg
VAS Any Drug Effect, peak value (dose 0.05 mg): 0.5 ± 1.0
VAS Bad Drug Effect, peak value (dose 0.05 mg): 0.8 ± 1.5
VAS Good Drug Effect, peak value (dose 0.05 mg): 0.3 ± 0.5
VAS Opioid Withdrawal, peak value (dose 0.05 mg): 1.3 ± 2.5
VAS Sickness, peak value (dose 0.05 mg): 0.50 ± 1.00
OOWS (total), peak value (dose 0.05 mg, mean ± standard deviation): 0.8 ± 0.5
Diastolic BP, peak value (dose 0.15 mg): 76.5 ± 5.1 mmHg
Heart Rate, peak value (dose 0.15 mg): 59.5 ± 2.9 bpm
OOWS (total), peak value (dose 0.15 mg): 1.5 ± 0.6
SOWS (total), peak value (dose 0.15 mg): 1.3 ± 1.9
Systolic blood pressure (BP), peak value (dose 0.15 mg): 118.5 ± 10.0 mmHg
VAS Any Drug Effect, peak value (dose 0.15 mg): 1.5 ± 1.7
VAS Bad Drug Effect, peak value (dose 0.15 mg): 17.9 ± 32.5
VAS Good Drug Effect, peak value (dose 0.15 mg): 2.2 ± 2.8
VAS Opioid Withdrawal, peak value (dose 0.15 mg): 1.4 ± 1.3
VAS Sickness, peak value (dose 0.15 mg): 9.3 ± 17.2
Diastolic BP, peak value (dose 0.5 mg): 80.3 ± 5.7 mmHg
Heart Rate, peak value (dose 0.5 mg): 61.8 ± 5.7 bpm
OOWS (total), peak value (dose 0.5 mg): 3.5 ± 1.3
SOWS (total), peak value (dose 0.5 mg): 4.3 ± 2.2
Systolic blood pressure (BP), peak value (dose 0.5 mg): 118.8 ± 7.6 mmHg
VAS Any Drug Effect, peak value (dose 0.5 mg): 34.3 ± 15.7
VAS Bad Drug Effect, peak value (dose 0.5 mg): 42.5 ± 23.7
VAS Good Drug Effect, peak value (dose 0.5 mg): 6.5 ± 12.3
VAS Opioid Withdrawal, peak value (dose 0.5 mg): 21.0 ± 29.7
VAS Sickness, peak value (dose 0.5 mg): 15.8 ± 18.1
Diastolic BP, peak value (dose 1.0 mg): 88.3 ± 12.7 mmHg
Heart Rate, peak value (dose 1.0 mg): 71.7 ± 4.9 bpm
OOWS (total), peak value (dose 1.0 mg): 5.3 ± 4.0
SOWS (total), peak value (dose 1.0 mg): 4.3 ± 2.8
Systolic blood pressure (BP), peak value (dose 1.0 mg): 134.7 ± 26.4 mmHg
VAS Any Drug Effect, peak value (dose 1.0 mg): 24.0 ± 21.7
VAS Bad Drug Effect, peak value (dose 1.0 mg): 26.9 ± 33.0
VAS Good Drug Effect, peak value (dose 1.0 mg): 1.0 ± 0.0
VAS Opioid Withdrawal, peak value (dose 1.0 mg): 13.1 ± 8.1
VAS Sickness, peak value (dose 1.0 mg): 9.0 ± 5.6
Would continue after highest dose (individual patients): No and Yes (3×)
pupillometry measures (a CNS effect) (up to 1 mg): unaffected
